Test results reported in patent US7572436B1, “Thionin as an antineoplastic and immunostimulant” (priority 2000, dated 2009).
“And” between values parts separate entries of the source, which are not always exact repeats. Equal entries are not always repeated. Where two headings read alike, the source gives them in different places. Where no end group is shown, it is not given here.

Legend:
[1] = tested on: murine Balb/C splenocytes; experiment: Binding of ^125I-labeled PT to mouse spleen cells; settings: for Kd: ^125I-PT
From the text: Splenocytes are isolated from the spleens of selected mice (as described herein), treated to remove red cells, resuspended in PBS after washing, and counted using Trypan Blue exclusion. The average yield of spleen cells (splenocytes) from one spleen is 1−1.5×10^8 cells. A desired concentration of cells per sample tube in the binding assay is more than 5×10^6 cells/ml.
The protocol for the binding assay has been previously described (Vernon and Rogers, Toxicon 30:711-721, 1992). Reactions were carried out in a total volume of 400 μl in each microcentrifuge tube (160 μl PBS with ^125I-labeled PT at varying concentrations with 240 μl of spleen cell suspensions).
A total of 10^7 spleen cells were placed in each of the reaction microfuge tubes, and allowed to equilibrate at room temperature for five minutes. To each tube was added radiolabeled thionin (e.g., ^125I-PT) in amounts from 0.1 to 20 μg/ml. The radiolabeled PT used in the experiments contained approximately 10^6 counts/minute (0.3 μCi) per μg PT. The suspension was incubated at room temperature for 10 minutes, then placed on ice for an additional 10 minutes. The tubes were then centrifuged to pellet the cells.
The radioactivity in the supernatant fluid was determined from an aliquot removed from the tube. The plastic pipette tip used to transfer the aliquot was also put in the vial and counted in a gamma ray counter along with the transferred aliquot of the supernatant fluid, since this tip may absorb PT from the aliquot during transfer. The radioactivity amount determined represents the “free” PT, not bound to a cell.
After removal of the entire supernatant, the sedimented cells were washed twice in PBS, and the entire final washed suspension of cells was transferred to a vial for radioactivity counting. As with measurement of radioactivity in the supernatant, the pipette tip used to transfer the cell sample was added to the vial to include any PT that might be bound to the plastic tip. This measures the total “bound” PT.
Non-specific binding was determined in the presence of a 100-fold excess of non-radioactive iodinated PT. The binding data reported were obtained by subtracting the non-specific from the total binding. Triplicate assays were performed for each concentration of PT employed.

[2] = tested on: YAC-1 target cells; experiment: Natural killer assay (^51Cr release), murine splenocytes against YAC-1; format: cell-based; settings: for % Cell Lysis: Balb/C splenocytes, ^51Cr loaded YAC-1 cells
Procedure: Murine spleen cell and human peripheral blood lymphocytes (PBLs) were obtained as described in the procedure for the Mitogen Assay.
Drugs and control substances were added, using sterile techniques, to the wells of a 24-well plate, using RPMI-10 as the culture medium. Spleen cells or human lymphocytes were added last to the wells at a concentration of 4×10^6 cells per 2 ml total volume in the well. Splenocyte incubation was usually three days (65-70 hours) while human lymphocyte stimulation may be extended to four to five days. The cells were incubated at 37° C. in a humidified 5% CO2 incubator.
On the day of harvest, 10^7 target cells were labeled with 150 μCi of ^51Cr (sodium chromate). Target cells used were YAC-I (murine Lymphoma) or K562 (human chronic myelogenous leukemia).
The cells were adjusted to 2×10^7 cells/ml in RPMI-10 and 150 μCi of ^51Cr were added to 500 μl of the target cell suspension (10^7 total cells) and incubated in a 5% CO2 humidified incubator for 1.5 hours. The labeled cells were washed three times with 10 ml RPMI-10 and then resuspended in 5 ml (2×10^6 cells/ml). Supernatants from washings of labeled cells were isolated and contained under lead shielding.
The stimulated effector cells were thoroughly mixed and removed from individual wells of the 24-well plate and transferred to tubes for centrifugation at 200×g. The supernatants were decanted and the pelleted cells washed once with 2 ml RPMI-10. The cells were finally resuspended in a total volume of 500 μl at approximately 8×10^6 cells/ml in RPMI-10.
One hundred microliters of the effector cell suspension (8×10^5 cells) were added in triplicate to a 96-well, V-bottom microplate. RPMI-10 was added to the wells designated for spontaneous release and total release of the target cells. One hundred microliters of the target cell suspension (1×10^4 cells/well) were added to the wells for a total volume of 200 μl. The “total release” wells contained 15 μl of 9% Triton X-100, 85 μl of RPMI-10, and 100 μl of target cells.
The 96-well plate was centrifuged at 150×g for four minutes to gently bring the effector and target cells in contact. The plate was then incubated in a humidified 5% CO2 incubator. After four hours, the assay plate was again centrifuged for five minutes at 250×g. One hundred microliters of the supernatant was carefully removed from each well and placed in 12 mm×75 mm glass tubes for counting in a gamma counter. The percent release was calculated using the following formula: […]
Addition of PT stimulates both murine splenocytes and human PBLs to kill tumor cells through lysis. This effect is enhanced in the presence of IL-2. Experimentally, the YAC-1 tumor cell line is routinely used as a target cell for murine NK cells, and the K562 cell line is used as the target for human PBLs. The human prostate cell line DU145 was also included in the test. The data set out in Table 5 show an activation of both murine and human NK cells by PT and IL-2. For these experiments, the drugs, PT and IL-2, were included in the cell suspension and incubated for 48 hours. After this period, the splenocyte suspension was mixed with the YAC-1 target cells that had been loaded with ^51Cr for four hours. The human PBLs were added to a K562 or DU-145 cell suspension that had been similarly loaded. After a 30-minute incubation, the radioactivity in the supernatant fluid was counted as a measure of lysis of the target cells, which reflects NK activity. […]

## Pyrularia thionin (KSCCRNTWARNCYNVCRLPGTISREICAKKCDCKIISGTTCPSDYPK; ends and bridges not checked; also: labeled with 125I) [PT]
[1]; PT up to 1 μg/ml, read-out: dissociation constant, high affinity binding site
  Kd: 65 nM and ~65 nM
[1]; PT up to 20 μg/ml, read-out: dissociation constant, low affinity binding site
  Kd: 1600 nM and ~1600 nM
[1]; murine spleen cells
  number of sites per cell, high affinity site: 1.4×10^5
  number of sites per cell, low affinity site: 1×10^6
[2]; 0.01 μg/ml
  % Cell Lysis: −0.9 ± 0.5%
[2]; 0.03 μg/ml
  % Cell Lysis: 2.1 ± 0.2%
[2]; 0.1 μg/ml
  % Cell Lysis: 1.8 ± 0.4%
[2]; Swiss Webster murine splenocytes, YAC-1 targets, 48 hours with drugs, PT 0.01 μg/ml, IL-2 50 units/ml when present, effector to target ratio 80
  % Cytotoxicity: 3.4 ± 0.9%
